Measured values from the supplement of paper PMC10307832.

How the values were obtained:
Assay in all cases: relative viability (nuclei count vs DMSO), 5 days (fraction); higher = more cells survive
[1] = compound: C1=CC(=CC=C1NC(=S)NNC2=C(C=C(C=C2[N+](=O)[O-])C(F)(F)F)[N+](=O)[O-])F [Kobe2602]
Outline: (§1)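 Viability was defined as treated-well nuclei divided by vehicle-well nuclei, with the median taken over replicate plates. Cells from lung cancer lines sat overnight at 37 °C in 1536-well plates, received five √10-spaced library-drug doses by pinning on vehicle-anchored plates, and grew 5 days without medium change before one-step fixation, permeabilisation and Hoechst staining, 4× imaging and MetaXpress nuclear counts. Only plates with control CV under 25% and at least one doubling were kept.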

[2] = compound: COc1cc2nccc(Oc3ccc(NC(=O)C4(C(=O)Nc5ccc(F)cc5)CC4)cc3)c2cc1OC [Cabozantinib]
Outline: as §1

[3] = compound: O[C@@H](COc1cccc2ncccc12)CN1CCN([C@@H]2c3ccccc3[C@@H]3[C@H](c4ccccc42)C3(F)F)CC1 [Zosuquidar]
Outline: as §1

[4] = compound: C1=CC(=CC=C1NC(=S)NNC2=C(C=C(C=C2[N+](=O)[O-])C(F)(F)F)[N+](=O)[O-])F [Kobe2602] + Cc1nc(NC(=O)N2CCC[C@H]2C(N)=O)sc1-c1ccnc(C(C)(C)C(F)(F)F)c1 [Alpelisib] (partner 2 µM)
Outline: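 Values are medians from duplicate plates. Each reflects relative viability, defined as the nuclei count of treated wells over that of vehicle wells. Lung cancer cell lines in 1536-well plates were pin-tool dosed one day after seeding with one drug alone or with a fixed anchor-drug dose plus five library-drug doses (not always all listed) in √10 steps, then fixed, stained and imaged at 4× after 5 days.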

Cell Line	relative viability ([1]; 0.2 µM)	relative viability ([1]; 0.6325 µM)	relative viability ([1]; 2 µM)	relative viability ([1]; 6.325 µM)	relative viability ([1]; 20 µM)	relative viability ([2]; 0.02 µM)	relative viability ([2]; 0.06325 µM)	relative viability ([2]; 0.2 µM)	relative viability ([2]; 0.6325 µM)	relative viability ([2]; 2 µM)	relative viability ([3]; 0.01 µM)	relative viability ([3]; 0.03162 µM)	relative viability ([3]; 0.1 µM)	relative viability ([3]; 0.3162 µM)	relative viability ([3]; 1 µM)	relative viability ([4]; first compound 0.2 µM)	relative viability ([4]; first compound 0.6325 µM)	relative viability ([4]; first compound 2 µM)	relative viability ([4]; first compound 6.325 µM)	relative viability ([4]; first compound 20 µM)
NCI-H441	0.973	1.2	0.917	1.04	1.16	0.738	1.23	0.96	0.793	0.879	1.14	0.881	0.829	1.06	1.17	0.725	0.864	0.682	0.704	0.727
HCC-44	0.982	1.02	0.974	0.958	0.942	1.01	1.05	1.04	1.06	1.01	1.01	1.03	0.987	1.05	0.978	0.852	0.793	0.767	0.725	0.737
NCI-H23	0.97	1.26	0.944	1.12	1.1	–	1.33	0.99	0.925	0.874	0.99	0.992	0.873	1.18	0.976	0.669	0.863	0.68	0.829	0.811
SW 1573	0.933	1.02	0.915	0.883	0.907	0.984	1.05	1.01	0.979	0.819	0.925	1	1.03	1.07	0.934	0.759	0.792	0.677	0.622	0.736
LU99A	0.908	0.998	0.948	0.939	1.01	0.889	1.03	0.979	0.901	0.822	0.984	0.833	0.971	1.04	0.912	0.515	0.525	0.415	0.542	0.607
SK-LU-1	1	1.13	0.937	1.04	1.1	0.97	1.24	1.08	0.926	0.942	1.1	1.02	0.962	1.11	1.07	1.03	1.37	0.968	0.948	0.977
NCI-H2126	1.01	1.02	0.975	0.971	0.961	0.747	1.05	0.991	0.99	1.11	0.96	0.996	0.741	1.03	1.03	0.688	0.817	0.726	0.735	0.806
LXF-289	1.03	1.04	0.99	0.985	0.991	1.04	1.02	0.974	1.05	1.02	1.01	1.02	1.01	1.02	0.97	1.01	1.02	0.976	1.06	0.994
BEN	1.14	1.02	0.925	0.981	1.01	0.918	1.11	1	0.95	0.808	0.994	0.876	0.801	0.938	0.977	1.07	1.12	0.947	0.883	1.03
LCLC-97TM1	1.07	1.07	0.928	0.798	1	–	1.02	1.06	0.999	1.02	0.9	1.12	–	1.02	0.939	0.26	0.26	0.228	0.202	0.262
NCI-H1993	0.877	0.993	0.876	0.792	0.87	0.681	0.787	0.584	0.734	0.788	0.925	0.879	0.685	1.06	0.826	0.67	0.844	0.591	0.669	0.666
A549	0.946	0.965	0.975	0.929	0.97	0.981	1.01	0.991	0.941	0.907	0.895	0.802	0.935	1.09	0.98	0.716	0.905	0.74	0.846	0.789
NCI-H596	1.02	0.927	1.01	0.92	1.11	1.1	1.17	1.06	1.01	0.983	1.06	0.806	1.04	1.14	1.04	0.489	0.438	0.46	0.453	0.415
LCLC-103H	1.01	1.01	0.987	0.992	0.981	0.824	1.16	1.02	1.05	0.953	0.911	0.973	0.752	1.02	1.06	0.897	0.944	0.961	1.02	0.985
HCC-78	0.984	0.975	0.968	0.918	1.15	–	0.958	0.471	0.37	0.447	1.07	1	–	0.997	0.897	0.359	0.359	–	0.391	0.445
NCI-H1975	0.995	0.978	0.852	0.836	0.905	1.03	1.1	0.961	0.873	0.855	0.934	0.824	0.937	1.06	0.959	0.641	0.648	0.559	0.564	0.524
